Results taken from patent publication EP4610262A1, “MACROCYCLIC COMPOUND AS CDK9 INHIBITOR AND USE THEREOF” (Artivila Biopharma, priority 2022, dated 2024).

Experiments:
[1] = molecular target: CDK9 (Homo sapiens, UniProt P50750); assay: Inhibition of CDK9 kinase activity (caliper mobility shift assay); assay type: biochemical; settings: for IC50: 10 concentrations from 10 µM, three-fold dilutions
Description: Compounds were tested at a concentration of 10 nM with detection in duplicate wells, or tested at 10 concentrations starting from 10 µM with three-fold serial dilutions, with detection in duplicate wells.
The inhibitory effect of the compounds on the activity of CDK9 protein kinase was detected by the caliper mobility shift assay method. 250 nL of the compound at 100-fold final concentration was transferred to a target 384-well-plate with a dispenser Echo 550. A kinase solution at 2.5-fold final concentration was prepared using 1× kinase buffer. 10 µL of the kinase solution at 2.5-fold final concentration was added to the compound well and positive control well respectively. 10 µL of 1× kinase buffer was added to the negative control well. The 384-well plate was centrifuged at 1000 rpm for 30 seconds and incubated at room temperature for 10 minutes. A mixed solution of ATP and kinase substrate at 5/3-fold final concentration was prepared with 1× kinase buffer, and to the 384-well plate was added with 15 µL per well of the mixed solution of ATP and substrate at 5/3-fold final concentration to start the reaction. The plate was centrifuged at 1000 rpm for 30 seconds, shaken to mix evenly, and incubated at room temperature for a corresponding time. 30 µL of detection stopping solution was added to terminate the kinase reaction. The 384-well plate was centrifuged at 1000 rpm for 30 seconds and shaken to mix evenly. The conversion rate was read with Caliper EZ Reader. The percent conversion inhibition rate = (% positive control conversion rate mean - % sample conversion rate / (% positive control conversion rate mean - % negative control conversion rate mean). Among them: negative control wells represent the conversion rate readings of kinase buffer background wells; positive control wells represent the conversion rate readings of wells without inhibition by compound. With the log value of concentration as the x-axis and the percentage inhibition rate as the y-axis, a dose-response curve was fitted using the log (inhibitor) vs. response -Variable slope of the analysis software GraphPad Prism 5 to obtain the IC50 value of each compound on enzyme activity. Calculation formula: y=Bottom + (Top-Bottom)/(1+10^((LogIC50-x) × hillslope)), x: logarithm of inhibitor concentration; y: % inhibition rate.

[2] = test system: MV-4-11; assay: CDK9 cell activity assay, cell growth inhibition (CellTiter-Glo, 72 hours); assay type: cell-based; settings: Homo sapiens, MV4-11
Description: (§1) In the CDK9 cell activity assay, the cell line MV-4-11 was cultured in IMDM culture medium containing 10% fetal bovine serum (containing 100 U/mL penicillin and 0.1 g/L streptomycin); the cell line HCC1187 was cultured in RPMI-1640 culture medium containing 10% fetal bovine serum (containing 100 U/mL penicillin and 0.1 g/L streptomycin); the cell line Mia Paca-2 was cultured in DMEM containing 10% fetal bovine serum and 2.5% horse serum (containing 100 U/mL penicillin and 0.1 g/L streptomycin); and the cell line A375 was cultured in RPMI-1640 culture medium containing 10% fetal bovine serum (containing 100 U/mL penicillin and 0.1 g/L streptomycin). All cells were cultured in an incubator with saturated humidity at 37°C with 5% CO2.
(§2) When MV-4-11 cells, HCC1187 cells, Mia Paca-2 cells, and A375 cells grew to 80%-90% confluence, they were digested with trypsin, resuspended, counted, and diluted to a certain cell density with complete medium. 100 µL of the cells was plated into each well of a 96-well plate, and the complete medium was used as a background control. The cells were cultured overnight in an incubator with saturated humidity at 37°C with 5% CO2. The compounds were diluted with DMSO to a final concentration of 200×. 3 µL of the stock solution of the above compounds in DMSO was added to 197 µL of complete medium, and 50 µL of the compound diluted in the medium was added to the cells of each well. The cells were cultured in an incubator with saturated humidity at 37°C with 5% CO2 for 72 hours. After 72 hours, the culture plates were placed at room temperature for equilibrium. 40 µL of CellTiter-Glo® reagent was added to each well. The plate was mixed evenly on a shaker for 2 minutes to lyse the cells then incubated at room temperature for 60 minutes to stabilize the chemiluminescent signal, and the chemiluminescence was read using a PE EnVision microplate reader. The inhibition rate on cell growth was calculated as % Inh = (DMSO well - compound treatment well) / (DMSO well - background well) x 100, and fitting was performed using GraphPad Prism 5 to obtain the IC50 values against cell growth.

[3] = test system: HCC1187; assay: as above; assay type: cell-based; settings: Homo sapiens
Description: as §1, §2

Sequence of CDK9 (P50750 whole entry): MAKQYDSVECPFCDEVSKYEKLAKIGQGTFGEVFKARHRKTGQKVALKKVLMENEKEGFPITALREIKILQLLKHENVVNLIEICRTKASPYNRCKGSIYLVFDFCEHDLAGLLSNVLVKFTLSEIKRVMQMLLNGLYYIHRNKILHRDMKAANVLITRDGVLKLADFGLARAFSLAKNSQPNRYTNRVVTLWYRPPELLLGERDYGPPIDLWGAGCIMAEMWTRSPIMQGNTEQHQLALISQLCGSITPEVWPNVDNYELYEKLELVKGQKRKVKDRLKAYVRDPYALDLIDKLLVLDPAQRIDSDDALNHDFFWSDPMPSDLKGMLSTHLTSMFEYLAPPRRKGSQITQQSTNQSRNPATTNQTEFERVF
Sequence of CDK9 (O60563 whole entry partner): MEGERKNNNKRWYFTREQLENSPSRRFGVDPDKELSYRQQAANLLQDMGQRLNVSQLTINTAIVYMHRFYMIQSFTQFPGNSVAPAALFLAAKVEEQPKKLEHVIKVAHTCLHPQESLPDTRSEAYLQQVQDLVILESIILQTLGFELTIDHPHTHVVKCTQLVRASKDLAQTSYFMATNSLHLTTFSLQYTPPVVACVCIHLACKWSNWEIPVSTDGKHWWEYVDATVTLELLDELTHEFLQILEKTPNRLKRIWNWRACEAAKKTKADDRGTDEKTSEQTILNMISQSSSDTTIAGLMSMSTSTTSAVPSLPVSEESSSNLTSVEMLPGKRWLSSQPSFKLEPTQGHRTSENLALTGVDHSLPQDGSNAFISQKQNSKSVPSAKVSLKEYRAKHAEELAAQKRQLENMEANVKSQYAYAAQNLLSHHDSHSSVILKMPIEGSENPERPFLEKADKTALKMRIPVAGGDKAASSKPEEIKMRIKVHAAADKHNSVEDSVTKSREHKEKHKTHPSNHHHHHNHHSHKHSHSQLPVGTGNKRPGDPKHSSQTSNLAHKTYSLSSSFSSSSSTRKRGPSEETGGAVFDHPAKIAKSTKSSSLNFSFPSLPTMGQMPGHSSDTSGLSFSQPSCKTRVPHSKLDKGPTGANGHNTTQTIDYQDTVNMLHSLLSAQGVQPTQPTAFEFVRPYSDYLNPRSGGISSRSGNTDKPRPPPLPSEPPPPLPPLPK

| SMILES | IC50 [1] | inhibition at 0.01 µM ([1]; compound at 10 nM, read-out: Inhibition rate on CDK9 kinase activity) | IC50 [2] | IC50 [3] |
| --- | --- | --- | --- | --- |
| Cc1nc2sc1-c1nc(ncc1F)Nc1cccc(c1)NCCOCCN2 [Compound 5, 2^5-fluoro-1^4-methyl-8-oxa-3,5,11-triaza-1(5,2)-thiazol-2(4,2)-pyrimidina-4(1,3)-benzenacyclodec aphane] | < 100 nM | 25 to 49% |  |  |
| Cc1nc2sc1-c1nc(ncc1F)Nc1cccc(c1)NC/C=C\CN2 [Compound 6, (Z)-2^5-fluoro-1^4-methyl-3,5,10-triaza-1(5,2)-thiazolin-2(4,2)-pyrimidina-4(1,3)-benzenacyclodec aphan-7-ene] | 100 to 500 nM |  |  |  |
| Cc1ccc2cc1-c1nc(ncc1F)Nc1cccc(c1)NCCCCN2 [Compound 30, 2^5-fluoro-1^6-methyl-3,5,10-triaza-2(4,2)-pyrimidina-1,4(1,3)-dibenzenacyclodecaphane] | < 100 nM |  |  |  |
| Clc1cnc2nc1-c1cnn(c1)CC/C=C\CNc1cccc(c1)N2 [Compound 31, (1^4Z,7Z)-2^5-chloro-1^1H-3,5-diaza-2(4,2)-pyrimidina-1(4,1)-pyrazola-4(1,3)-benzenacyclodecaph an-7-ene] | < 100 nM |  | < 250 nM | 250 to 1000 nM |
| Clc1cnc2nc1-c1cnn(c1)CCCCCCn1cc(c(Cl)n1)N2 [Compound 33, (1^4Z,4^4E,7Z)-2^5,4^3-chloro-1^1H,4^1H-3-aza-2(4,2)-pyrimidina-1,4(4,1)-bipyrazolacyclodecaphane] | 500 to 1000 nM |  |  |  |
| Clc1cnc2nc1-c1cccc(c1)OCCCCNCc1cccc(c1)N2 [Compound 34, 2^5-chloro-11-oxa-3,6-diaza-2(4,2)-pyrimidina-1,4(1,3)-dibenzenacycloundecaphane] | < 100 nM |  |  |  |
| Fc1cnc2nc1-c1cccc(c1)NC/C=C\CNc1cccc(c1)N2 [Compound 37, (Z)-2^5-fluoro-3,5,10-triaza-2(4,2)-pyrimidina-1,4(1,3)-dibenzenacyclooctyna-7-ene] | < 100 nM |  |  |  |
| Fc1cnc2nc1-c1cccc(c1)NCCCCNc1cccc(c1)N2 [Compound 38, 2^5-fluoro-3,5,10-triaza-2(4,2)-pyrimidina-1,4(1,3)-dibenzenacyclodecaphane] | < 100 nM |  | 250 to 1000 nM | 250 to 1000 nM |
| COc1ccc2cc1-c1nc(ncc1F)Nc1cccc(c1)NC/C=C\CN2 [Compound 39, (Z)-2^5-fluoro-1^6-methoxy-3,5,10-triaza-2(4,2)-pyrimidina-1,4(1,3)-dibenzenacyclooctyna-7-ene] | < 100 nM |  | 250 to 1000 nM | 1000 to 5000 nM |
| COc1ccc2cc1-c1nc(ncc1F)Nc1cccc(c1)NCCCCN2 [Compound 40, 2^5-fluoro-1^6-methoxy-3,5,10-triaza-2(4,2)-pyrimidina-1,4(1,3)-dibenzenacyclodecaphane] | < 100 nM |  |  |  |
| Clc1cnc2nc1N1CCC(C1)NCCCNCc1cccc(c1)N2 (stereo not shown) [Compound 43, 2^5-chloro-3,6,10-triaza-2(4,2)-pyrimidina-1(1,3)-pyrrolidina-4(1,3)-benzenacyclodecaphane] | 500 to 1000 nM |  |  |  |
| Clc1cnc2nc1N1CCC(C1)OCCCNCc1cccc(c1)N2 (stereo not shown) [Compound 45, 2^5-chloro-10-oxa-3,6-diaza-2(4,2)-pyrimidina-1(1,3)-pyrrolidina-4(1,3)-benzenacyclodecaphane] | 100 to 500 nM |  |  |  |
| Clc1cnc2nc1NCCCCCn1cc(cn1)N2 [Compound 47, (E)-1^5-chloro-3^1H-2,9-diaza-1(2,4)-pyrimidina-3(4,1)-pyrazolacyclononaphane] | 100 to 500 nM |  |  |  |

Results, then the compound that gave them:

| IC50 [1] | inhibition at 0.01 µM ([1]; compound at 10 nM, read-out: Inhibition rate on CDK9 kinase activity) | IC50 [2] | IC50 [3] | SMILES |
| --- | --- | --- | --- | --- |
| 100 to 500 nM |  |  |  | CN1CCN(c2ccc3cc2COCCCCCNc2nc(ncc2Cl)N3)CC1 [Compound 21, 1^5-chloro-3^4-(4-methylpiperazin-1-yl)-5-oxa-2,11-diaza-1(2,4)-pyrimidina-3(1,3)-benzenacyclou ndecaphane] |
| < 100 nM |  |  |  | Cc1ccc2cc1-c1nc(ncc1Cl)Nc1cccc(c1)NCCCCN2 [Compound 22, 2^5-chloro-1^6-methyl-3,5,10-triaza-2(4,2)-pyrimidina-1,4(1,3)-dibenzocyclodecane] |
| < 100 nM |  |  |  | c1cc2cc(c1)Nc1nccc(n1)NCCCCCNC2 [Compound 24, 2,5,11-triaza-1(2,4)-pyrimidina-3(1,3)-benzocycloundecaphane] |
| < 100 nM |  |  |  | CN1CCCCCNCc2cccc(c2)Nc2ncc(Cl)c1n2 [Compound 25, 1^5-chloro-11-methyl-2,5,11-triaza-1(2,4)-pyrimidina-3(1,3)-benzocycloundecaphane] |
| < 100 nM |  |  |  | Cc1ccc2cc1-c1nc(ncc1Cl)Nc1cnn(c1)CC/C=C\CN2 [Compound 27, (4^4E,7Z)-2^5-chloro-1^6-methyl-4^1hydro-3,10-diaza-2(4,2)-pyrimidina-4(4,1)-pyrazole-1(1,3)-benz enecyclodecane-7-ene] |
| < 100 nM |  | < 250 nM |  | Cc1ccc2cc1-c1nc(ncc1Cl)Nc1cnn(c1)CCCCCN2 [Compound 28, (E)-2^5-chloro-1^6-methyl-4^1hydro-3,10-diaza-2(4,2)-diaza-2(4,2)-pyrimidina-4(4,1)-pyrazola-1(1, 3)-benzenacyclodecaphane] |
| < 100 nM |  |  |  | Cc1ccc2cc1-c1nc(ncc1F)Nc1cccc(c1)NC/C=C\CN2 [Compound 29, (Z)-2^5-fluoro-1^6-methyl-3,5,10-triaza-2(4,2)-pyrimidina-1,4(1,3)-dibenzenacyclodecaphan-7-ene] |
| < 100 nM |  |  |  | Clc1cnc2nc1-c1cnn(c1)CCCCCNc1cccc(c1)N2 [Compound 32, (Z)-2^5-chloro-1^1H-3,5-diaza-2(4,2)-pyrimidina-1(4,1)-pyrazola-4(1,3)-benzenacyclodecaphane] |
| < 100 nM |  | < 250 nM | < 250 nM | Cc1ccc2cc1-c1nc(ncc1Cl)Nc1cccc(c1)CNCCCN2 [Compound 35, 2^5-chloro-1^6-methyl-3,6,10-triaza-2(4,2)-pyrimidina-1,4(1,3)-dibenenacyclodecaphane] |
| < 100 nM |  |  |  | Cc1ccc2cc1-c1nc(ncc1Cl)Nc1cccc(c1)CNCCCCO2 [Compound 36, 2^5-chloro-1^6-methyl-11-oxy-3,6-diaza-2(4,2)-pyrimidina-1,4(1,3)-dibenzocycloundecaphane] |
| < 100 nM |  | < 250 nM | < 250 nM | Cc1ccc2cc1-c1nc(ncc1Cl)Nc1cnn(c1)CCOCCN2 [Compound 41, (E)-2^5-chloro-1^6-methyl-4^1H-7-oxa-3,10-diaza-2(4,2)-pyrimidina-4(4,1)-pyrazola-1(1,3)-benzena cyclodecaphane] |
| 500 to 1000 nM |  |  |  | Clc1cnc2nc1N1CCC(C1)NCCCCNCc1cccc(c1)N2 (stereo not shown) [Compound 44, 2^5-chloro-3,6,11-triaza-2(4,2)-pyrimidina-1(1,3)-pyrrolidina-4(1,3)-benzenacycloalkaphane] |
| < 100 nM |  | 250 to 1000 nM | 250 to 1000 nM | Cc1ccc2cc1-c1nc(ncc1Cl)Nc1cnn(c1)CCNCCN2 [Compound 46, (E)-2^5-chloro-1^6-methyl-4^1H-3,7,10-triaza-2(4,2)-pyrimidina-4(4,1)-pyrazola-1(1,3)-benzenacycl odecaphane] |
